Results from patent US9168212B2, “Composition for eyelash growth” (SK CHEMICALS CO., LTD., priority 2011, dated 2015).

What was measured:
[1] = system: eyelashes; assay: In vivo evaluation related to eyelash growth (two weeks local administration); set-up: species or system mouse
Experimental: (§1) Analysis was conducted immediately after the eyelashes were collected. Using a high-performance microscope with computer-assisted eyelid thickness focus fixation and an image analysis software capable of measuring the number, thickness and length of eyelashes, the eyelashes were measured for the exact number, thickness and length thereof. Numeric data obtained by this method was averaged, and comparative analysis was conducted using prism statistical software.

[2] = system: eyelashes; assay: Short-term in vivo evaluation related to eyelash growth (one week administration); set-up: species or system mouse
Experimental: as §1

[3] = female mouse, 2 μl applied to the eyelashes once a day for two weeks, n is 8 for each group
[4] = female mouse, 2 μl applied to the eyelashes once a day for one week, n is 6 for each group

With `CCNC(=O)CCC/C=C\C[C@@H]1[C@@H](/C=C/[C@@H](O)CCc2ccccc2)[C@H](O)C[C@@H]1O` [bimatoprost] the “statistical significance of increase in number, thickness and length of eyelashes compared to the control group” value ([1]; administered for two weeks, t-test) was “statistically significant increase in only two items of number and thickness of eyelashes”, the number of eyelashes [1, 3] was 39.0 eyelashes and the “number of eyelashes having a length of 1000 μm or more” value [1, 3] was 9.5 eyelashes. For the same molecule, the “number of eyelashes having a thickness of 15 μm or more” value [1, 3] was 9.5 eyelashes, the number of eyelashes [2, 4] was 37.8 eyelashes and the “number of eyelashes having a length of 1000 μm or more” value [2, 4] was 12.3 eyelashes. For the same molecule, the “number of eyelashes having a thickness of 15 μm or more” value [2, 4] was 8.7 eyelashes and the “statistical significance of increase in number, thickness and length of eyelashes compared to the control group” value ([2]; one week administration, t-test) was “statistically significant increase in only one item of eyelash thickness”.
